From patent US20240350522A1, “HYGROMYCIN A FOR TREATMENT OF DISEASES AND INFECTIONS” (FLIGHTPATH BIOSCIENCES, INC., priority 2021, published 2024)
Where “and” joins values, the source holds several entries; their conditions need not be identical. Equal entries are not always repeated.

How the values were obtained:
[1] = tested on: Treponema pallidum pallidum Chicago strain; assay: T. pallidum susceptibility assay, co-culture with Sf1Ep cells, tp0574 (T47) qPCR after 7 days; assay type: cell-based; settings: 7 days; for Mean T47 copies/μL, experimental values: replicate wells; for Mean T47 copies/μL, Avg.: average of 8 replicates
[2] = tested on: Treponema pallidum pallidum Chicago strain; assay: Treated treponemes seeded onto no-antibiotic plate, 7 more days, T47 qPCR (treponemicidal activity); assay type: cell-based; settings: for Mean T47 copies/μL, Avg. / Mean T47 copies/μL, Expt. values: seeded on no antibiotic plate; for Mean T47 copies/μL, Avg.: average; for Mean T47 copies/μL, Expt. values: replicate wells
[3] = tested on: Treponema pallidum pallidum SS14 strain; assay: T. pallidum susceptibility assay, co-culture with Sf1Ep cells, tp0574 (T47) qPCR after 7 days; assay type: cell-based; settings: for Mean T47 copies/μL, Average / Mean T47 copies/μL, experimental values: 7 days; for Mean T47 copies/μL, Average: average of 8 replicates; for Mean T47 copies/μL, experimental values: replicate wells
[4] = tested on: Treponema pallidum pallidum SS14 strain; assay: Treated treponemes seeded onto no-antibiotic plate, 7 more days, T47 qPCR (treponemicidal activity); assay type: cell-based; settings: for Mean T47 copies/μL, Avg. / Mean T47 copies/μL, Expt. values: seeded on no antibiotic plate; for Mean T47 copies/μL, Avg.: average; for Mean T47 copies/μL, Expt. values: replicate wells
SF1Ep cells = assay: Cytotoxicity assay, Cell Proliferation Reagent WST-1; assay type: cell-based, rabbit; settings: day 7; any concentration tested (0.03-3.84 μg/mL)
Procedure: Cytotoxicity assay was performed according to the Cell Proliferation Reagent WST-1 protocol (Attached; Roche, Basel, Switzerland). Absorbance was measured after 1 hour incubation with the reagent.

[5] = pre-treated with Hygromycin A 0.03 μg/ml
[6] = pre-treated with Hygromycin A 0.06 μg/ml
[7] = pre-treated with Hygromycin A 0.12 μg/ml
[8] = pre-treated with Hygromycin A 0.24 μg/ml
[9] = pre-treated with Hygromycin A 0.48 μg/ml
[10] = pre-treated with Hygromycin A 0.96 μg/ml
[11] = pre-treated with Hygromycin A 1.92 μg/ml
[12] = pre-treated with Hygromycin A 3.84 μg/ml

CC(=O)[C@H]1O[C@@H](Oc2ccc(/C=C(\C)C(=O)N[C@@H]3[C@H](O)[C@@H](O)[C@H]4OCO[C@H]4[C@@H]3O)cc2O)[C@@H](O)[C@@H]1O [Hyg A, Hygromycin A]
Mean T47 copies/μL, experimental values ([1]; Hyg A 0.12 μg/ml): 449 copies/μL and 775 copies/μL and 689 copies/μL and 776 copies/μL and 788 copies/μL and 670 copies/μL and 704 copies/μL and 545 copies/μL
Mean T47 copies/μL, Avg. ([1]; Hyg A 0.24 μg/ml): 576 copies/μL
Mean T47 copies/μL, experimental values ([1]; Hyg A 0.24 μg/ml): 360 copies/μL and 447 copies/μL and 513 copies/μL and 890 copies/μL and 775 copies/μL and 636 copies/μL and 565 copies/μL and 424 copies/μL
Mean T47 copies/μL, Avg. ([1]; Hyg A 0.48 μg/ml): 457 copies/μL
Mean T47 copies/μL, experimental values ([1]; Hyg A 0.48 μg/ml): 341 copies/μL and 475 copies/μL and 462 copies/μL and 614 copies/μL and 548 copies/μL and 509 copies/μL and 425 copies/μL and 280 copies/μL
Mean T47 copies/μL, Avg. ([1]; Hyg A 0.96 μg/ml): 397 copies/μL
Mean T47 copies/μL, experimental values ([1]; Hyg A 0.96 μg/ml): 271 copies/μL and 393 copies/μL and 520 copies/μL and 528 copies/μL and 402 copies/μL and 418 copies/μL and 372 copies/μL and 273 copies/μL
Mean T47 copies/μL, Avg. ([1]; Hyg A 1.92 μg/ml): 451 copies/μL
Mean T47 copies/μL, experimental values ([1]; Hyg A 1.92 μg/ml): 301 copies/μL and 422 copies/μL and 453 copies/μL and 556 copies/μL and 585 copies/μL and 546 copies/μL and 464 copies/μL and 279 copies/μL
Mean T47 copies/μL, Avg. ([1]; Hyg A 3.84 μg/ml): 493 copies/μL
Mean T47 copies/μL, experimental values ([1]; Hyg A 3.84 μg/ml): 324 copies/μL and 470 copies/μL and 612 copies/μL and 487 copies/μL and 485 copies/μL and 532 copies/μL and 618 copies/μL and 412 copies/μL
concentration with treponemicidal activity ([2]; Chicago strain seeded onto no-antibiotic control plate): ≥ 0.12 µg/mL
Mean T47 copies/μL, Avg. [2, 5]: 14552 copies/μL
Mean T47 copies/μL, Expt. values [2, 5]: 10276 copies/μL and 18338 copies/μL and 20335 copies/μL and 9952 copies/μL
Mean T47 copies/μL, Avg. [2, 6]: 1000 copies/μL
Mean T47 copies/μL, Expt. values [2, 6]: 744 copies/μL and 560 copies/μL and 2087 copies/μL and 892 copies/μL
Mean T47 copies/μL, Avg. [2, 7]: 28 copies/μL
Mean T47 copies/μL, Expt. values [2, 7]: 13 copies/μL and 19 copies/μL and 39 copies/μL and 22 copies/μL
Mean T47 copies/μL, Avg. [2, 8]: 32 copies/μL
Mean T47 copies/μL, Expt. values [2, 8]: 17 copies/μL and 41 copies/μL and 22 copies/μL and 52 copies/μL
Mean T47 copies/μL, Avg. [2, 9]: 26 copies/μL
Mean T47 copies/μL, Expt. values [2, 9]: 0 copies/μL and 32 copies/μL (2×) and 23 copies/μL and 22 copies/μL
Mean T47 copies/μL, Avg. [2, 10]: 24 copies/μL
Mean T47 copies/μL, Expt. values [2, 10]: 14 copies/μL and 23 copies/μL and 31 copies/μL and 27 copies/μL and 7 copies/μL
Mean T47 copies/μL, Avg. [2, 11]: 23 copies/μL
Mean T47 copies/μL, Expt. values [2, 11]: 28 copies/μL and 8 copies/μL and 23 copies/μL and 36 copies/μL and 34 copies/μL
Mean T47 copies/μL, Avg. [2, 12]: 27 copies/μL
Mean T47 copies/μL, Expt. values [2, 12]: 37 copies/μL and 24 copies/μL and 27 copies/μL and 41 copies/μL and 13 copies/μL
Mean T47 copies/μL, Average ([3]; Hyg A 0.03 μg/ml): 2768 copies/μL
Mean T47 copies/μL, Average ([3]; Hyg A 0.06 μg/ml): 916 copies/μL
Mean T47 copies/μL, experimental values ([3]; Hyg A 0.06 μg/ml): 713 copies/μL and 883 copies/μL and 851 copies/μL and 1260 copies/μL
Mean T47 copies/μL, Average ([3]; Hyg A 0.12 μg/ml): 737 copies/μL
Mean T47 copies/μL, experimental values ([3]; Hyg A 0.12 μg/ml): 372 copies/μL and 629 copies/μL and 710 copies/μL and 787 copies/μL and 926 copies/μL and 951 copies/μL and 965 copies/μL and 552 copies/μL
Mean T47 copies/μL, Average ([3]; Hyg A 0.24 μg/ml): 516 copies/μL
Mean T47 copies/μL, experimental values ([3]; Hyg A 0.24 μg/ml): 510 copies/μL and 491 copies/μL and 572 copies/μL and 587 copies/μL and 564 copies/μL and 600 copies/μL and 441 copies/μL and 360 copies/μL
Mean T47 copies/μL, Average ([3]; Hyg A 0.48 μg/ml): 426 copies/μL
Mean T47 copies/μL, experimental values ([3]; Hyg A 0.48 μg/ml): 327 copies/μL and 435 copies/μL and 503 copies/μL and 508 copies/μL and 487 copies/μL and 453 copies/μL and 342 copies/μL and 352 copies/μL
Mean T47 copies/μL, Average ([3]; Hyg A 0.96 μg/ml): 319 copies/μL
Mean T47 copies/μL, experimental values ([3]; Hyg A 0.96 μg/ml): 150 copies/μL and 307 copies/μL and 435 copies/μL and 361 copies/μL and 405 copies/μL and 327 copies/μL and 299 copies/μL and 268 copies/μL
Mean T47 copies/μL, Average ([3]; Hyg A 1.92 μg/ml): 323 copies/μL
Mean T47 copies/μL, Average ([3]; Hyg A 3.84 μg/ml): 275 copies/μL
lowest concentration effective against growth (no significant difference to higher concentrations) ([3]; SS14 strain, ANOVA p<0.05): 1.92 µg/mL
concentration with treponemicidal activity ([4]; SS14 strain seeded onto no-antibiotic control plate): ≥ 0.12 µg/mL
Mean T47 copies/μL, Avg. [4, 5]: 2232 copies/μL
Mean T47 copies/μL, Expt. values [4, 5]: 1649 copies/μL and 3690 copies/μL and 3831 copies/μL and 2114 copies/μL and 445 copies/μL and 1541 copies/μL and 2079 copies/μL and 2511 copies/μL
Mean T47 copies/μL, Avg. [4, 6]: 199 copies/μL
Mean T47 copies/μL, Expt. values [4, 6]: 137 copies/μL and 310 copies/μL and 274 copies/μL and 99 copies/μL and 71 copies/μL and 159 copies/μL and 200 copies/μL and 343 copies/μL
Mean T47 copies/μL, Avg. [4, 7]: 20 copies/μL
Mean T47 copies/μL, Expt. values [4, 7]: 17 copies/μL and 14 copies/μL and 45 copies/μL and 0 copies/μL and 22 copies/μL and 25 copies/μL and 15 copies/μL and 24 copies/μL
Mean T47 copies/μL, Avg. [4, 8]: 13 copies/μL
Mean T47 copies/μL, Expt. values [4, 8]: 35 copies/μL and 16 copies/μL (2×) and 6 copies/μL and 5 copies/μL and 21 copies/μL and 7 copies/μL and 0 copies/μL
Mean T47 copies/μL, Avg. [4, 9]: 9 copies/μL
Mean T47 copies/μL, Expt. values [4, 9]: 2 copies/μL and 0 copies/μL (2×) and 16 copies/μL and 10 copies/μL and 31 copies/μL and 5 copies/μL and 6 copies/μL
Mean T47 copies/μL, Avg. [4, 10]: 7 copies/μL
Mean T47 copies/μL, Expt. values [4, 10]: 8 copies/μL and 11 copies/μL and 0 copies/μL (2×) and 3 copies/μL (2×) and 16 copies/μL and 13 copies/μL
Mean T47 copies/μL, Avg. [4, 11]: 13 copies/μL
Mean T47 copies/μL, Expt. values [4, 11]: 5 copies/μL (2×) and 7 copies/μL and 17 copies/μL and 19 copies/μL (2×) and 8 copies/μL and 22 copies/μL
Mean T47 copies/μL, Avg. [4, 12]: 19 copies/μL
Mean T47 copies/μL, Expt. values [4, 12]: 19 copies/μL and 25 copies/μL and 21 copies/μL (2×) and 18 copies/μL and 7 copies/μL and 15 copies/μL and 22 copies/μL
toxicity to SF1Ep cells (WST-1) (SF1Ep cells): not toxic
